From ChEMBL document CHEMBL1201862, “PubChem BioAssay data set” (2004)
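Tested at 5 concentrations; 48 h exposure; 96-well plates; endpoints linearly interpolated, else capped at highest concentration. The concentration for 50% growth inhibition is given as GI50.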 Activity calls are given as the source filed them. Rule as the data show it: active = GI50 up to about 1.1 µM and inactive = higher.

Tests used:
Test in all cases: DTP human tumour cell line panel, 48 h
MDA-N = tested on: MDA-N
PC-3 = tested on: PC-3
NCI-H460 = tested on: NCI-H460
MCF7 = tested on: MCF7
SF-268 = tested on: SF-268
CAKI-1 = tested on: CAKI-1
CCRF-CEM = tested on: CCRF-CEM
UO-31 = tested on: UO-31
Malme-3M = tested on: Malme-3M
SK-MEL-28 = tested on: SK-MEL-28
A498 = tested on: A498
M14 = tested on: M14
SNB-19 = tested on: SNB-19
NCI/ADR-RES = tested on: NCI/ADR-RES
HCT-15 = tested on: HCT-15
786-0 = tested on: 786-0
OVCAR-3 = tested on: OVCAR-3
SK-MEL-2 = tested on: SK-MEL-2
MDA-MB-435 = tested on: MDA-MB-435
TK-10 = tested on: TK-10
BT-549 = tested on: BT-549
UACC-62 = tested on: UACC-62
SW-620 = tested on: SW-620
UACC-257 = tested on: UACC-257
NCI-H23 = tested on: NCI-H23
HL-60 = tested on: HL-60
IGROV-1 = tested on: IGROV-1
T47D = tested on: T47D
ACHN = tested on: ACHN
EKVX = tested on: EKVX
Hs-578T = tested on: Hs-578T
OVCAR-4 = tested on: OVCAR-4
U-251 = tested on: U-251
DU-145 = tested on: DU-145
NCI-H522 = tested on: NCI-H522
HCT-116 = tested on: HCT-116
OVCAR-5 = tested on: OVCAR-5
HOP-92 = tested on: HOP-92
MDA-MB-231 = tested on: MDA-MB-231
OVCAR-8 = tested on: OVCAR-8
SN12C = tested on: SN12C
HT-29 = tested on: HT-29
LOX IMVI = tested on: LOX IMVI
NCI-H226 = tested on: NCI-H226
MOLT-4 = tested on: MOLT-4
KM12 = tested on: KM12
SNB-75 = tested on: SNB-75
SF-295 = tested on: SF-295
A549 = tested on: A549
HOP-62 = tested on: HOP-62
COLO 205 = tested on: COLO 205
HCC 2998 = tested on: HCC 2998
K562 = tested on: K562
SR = tested on: SR
SK-OV-3 = tested on: SK-OV-3
RPMI-8226 = tested on: RPMI-8226
SF-539 = tested on: SF-539
SK-MEL-5 = tested on: SK-MEL-5
RXF 393 = tested on: RXF 393

## OC(c1ccc(F)cc1)C(F)(F)c1nc(-c2ccccc2)no1 (configuration not stated)
MDA-N
  GI50: 23.8 µM (inactive)
PC-3
  GI50: 21.8 µM (inactive)
NCI-H460
  GI50: 0.0632 µM (active)
MCF7
  GI50: 23.7 µM (inactive)
SF-268
  GI50: 25.3 µM (inactive)
CAKI-1
  GI50: 27 µM (inactive)
CCRF-CEM
  GI50: 14.3 µM (inactive)
UO-31
  GI50: 19 µM (inactive)
Malme-3M
  GI50: 13.9 µM (inactive)
SK-MEL-28
  GI50: 21.1 µM (inactive)
A498
  GI50: 22.6 µM (inactive)
M14
  GI50: 17.9 µM (inactive)
SNB-19
  GI50: 36.4 µM (inactive)
NCI/ADR-RES
  GI50: 30.6 µM (inactive)
HCT-15
  GI50: 23.9 µM
786-0
  GI50: 20.1 µM (inactive)
OVCAR-3
  GI50: 16.4 µM (inactive)
SK-MEL-2
  GI50: 18.9 µM (inactive)
MDA-MB-435
  GI50: 19.4 µM (inactive)
TK-10
  GI50: 38.3 µM (inactive)
BT-549
  GI50: 17.8 µM (inactive)
UACC-62
  GI50: 18.2 µM (inactive)
SW-620
  GI50: 19.3 µM (inactive)
UACC-257
  GI50: 19.6 µM (inactive)
NCI-H23
  GI50: 26.1 µM (inactive)
HL-60
  GI50: 22.5 µM (inactive)
IGROV-1
  GI50: > 100 µM (inactive)
T47D
  GI50: 23.7 µM (inactive)
ACHN
  GI50: 27.2 µM (inactive)
EKVX
  GI50: 22.9 µM (inactive)
Hs-578T
  GI50: 30.5 µM (inactive)
OVCAR-4
  GI50: 20.7 µM (inactive)
U-251
  GI50: 0.126 µM (active)
DU-145
  GI50: 21.2 µM (inactive)
NCI-H522
  GI50: 2.44 µM (inactive)
HCT-116
  GI50: 19.1 µM (inactive)
OVCAR-5
  GI50: 18.1 µM (inactive)
HOP-92
  GI50: 23.7 µM (inactive)
MDA-MB-231
  GI50: 2.43 µM (inactive)
OVCAR-8
  GI50: > 100 µM (inactive)
SN12C
  GI50: 21.6 µM (inactive)
HT-29
  GI50: 17.6 µM (inactive)
LOX IMVI
  GI50: 86.5 µM (inactive)

## COC(=O)c1ccc(C)cc1CC1Cc2cc(C)ccc2C1=O (configuration not stated)
NCI-H226
  GI50: > 100 µM (inactive)
MDA-N
  GI50: > 100 µM (inactive)
PC-3
  GI50: > 100 µM (inactive)
NCI-H460
  GI50: > 100 µM (inactive)
MCF7
  GI50: > 100 µM (inactive)
SF-268
  GI50: > 100 µM (inactive)
CAKI-1
  GI50: > 100 µM (inactive)
CCRF-CEM
  GI50: > 100 µM (inactive)
UO-31
  GI50: > 100 µM (inactive)
Malme-3M
  GI50: > 100 µM (inactive)
SK-MEL-28
  GI50: > 100 µM (inactive)
A498
  GI50: > 100 µM (inactive)
M14
  GI50: > 100 µM (inactive)
SNB-19
  GI50: > 100 µM (inactive)
NCI/ADR-RES
  GI50: > 100 µM (inactive)
HCT-15
  GI50: > 100 µM
786-0
  GI50: > 100 µM (inactive)
OVCAR-3
  GI50: > 100 µM (inactive)
SK-MEL-2
  GI50: > 100 µM (inactive)
MOLT-4
  GI50: > 100 µM (inactive)
MDA-MB-435
  GI50: > 100 µM (inactive)
TK-10
  GI50: > 100 µM (inactive)
BT-549
  GI50: 94.2 µM (inactive)
KM12
  GI50: > 100 µM (inactive)
SNB-75
  GI50: > 100 µM (inactive)
SF-295
  GI50: > 100 µM (inactive)
UACC-62
  GI50: > 100 µM (inactive)
SW-620
  GI50: > 100 µM (inactive)
UACC-257
  GI50: > 100 µM (inactive)
NCI-H23
  GI50: > 100 µM (inactive)
A549
  GI50: > 100 µM (inactive)
HOP-62
  GI50: > 100 µM (inactive)
HL-60
  GI50: > 100 µM (inactive)
COLO 205
  GI50: > 100 µM (inactive)
IGROV-1
  GI50: > 100 µM (inactive)
T47D
  GI50: > 100 µM (inactive)
ACHN
  GI50: > 100 µM (inactive)
EKVX
  GI50: > 100 µM (inactive)
HCC 2998
  GI50: > 100 µM (inactive)
Hs-578T
  GI50: > 100 µM (inactive)
OVCAR-4
  GI50: > 100 µM (inactive)
U-251
  GI50: > 100 µM (inactive)
K562
  GI50: > 100 µM (inactive)
DU-145
  GI50: > 10 µM (inactive)
NCI-H522
  GI50: > 100 µM (inactive)
SR
  GI50: > 100 µM (inactive)
HCT-116
  GI50: > 100 µM (inactive)
OVCAR-5
  GI50: > 100 µM (inactive)
SK-OV-3
  GI50: > 100 µM (inactive)
MDA-MB-231
  GI50: > 100 µM (inactive)
RPMI-8226
  GI50: > 100 µM (inactive)
OVCAR-8
  GI50: > 100 µM (inactive)
SN12C
  GI50: > 100 µM (inactive)
HT-29
  GI50: > 100 µM (inactive)
SF-539
  GI50: > 100 µM (inactive)
LOX IMVI
  GI50: > 100 µM (inactive)

## COc1ccc2nc3cc(Cl)ccc3c(NCCCN3CCN(CCCNc4ccc5nnn6c7ccccc7c(=O)c4c56)CC3)c2c1
NCI-H226
  GI50: > 25 µM (inactive)
MDA-N
  GI50: 1.65 µM (inactive)
PC-3
  GI50: > 6.01 µM (inactive)
NCI-H460
  GI50: 0.0995 µM (active)
MCF7
  GI50: 0.225 µM (active)
SF-268
  GI50: > 7.36 µM (inactive)
CAKI-1
  GI50: > 5.62 µM (inactive)
SK-MEL-5
  GI50: > 25 µM (inactive)
CCRF-CEM
  GI50: 0.17 µM (active)
UO-31
  GI50: > 7.5 µM (inactive)
SK-MEL-28
  GI50: > 25 µM (inactive)
A498
  GI50: > 25 µM (inactive)
M14
  GI50: > 25 µM (inactive)
SNB-19
  GI50: > 25 µM (inactive)
NCI/ADR-RES
  GI50: 4.89 µM (inactive)
HCT-15
  GI50: 0.179 µM
786-0
  GI50: 0.646 µM (active)
OVCAR-3
  GI50: > 25 µM (inactive)
SK-MEL-2
  GI50: > 25 µM (inactive)
MOLT-4
  GI50: 0.0743 µM (active)
MDA-MB-435
  GI50: 3.25 µM (inactive)
TK-10
  GI50: > 10.3 µM (inactive)
BT-549
  GI50: 5.24 µM (inactive)
KM12
  GI50: 0.277 µM (active)
SNB-75
  GI50: > 25 µM (inactive)
SF-295
  GI50: 2.37 µM (inactive)
UACC-62
  GI50: > 25 µM (inactive)
SW-620
  GI50: 0.0458 µM (active)
UACC-257
  GI50: 2.51 µM (inactive)
NCI-H23
  GI50: 19.5 µM (inactive)
A549
  GI50: 0.172 µM (active)
HOP-62
  GI50: > 25 µM (inactive)
HL-60
  GI50: 1.14 µM (inactive)
COLO 205
  GI50: 0.923 µM (active)
IGROV-1
  GI50: 0.309 µM (active)
RXF 393
  GI50: 0.948 µM (active)
T47D
  GI50: > 25 µM (inactive)
EKVX
  GI50: > 17 µM (inactive)
HCC 2998
  GI50: 0.303 µM (active)
Hs-578T
  GI50: > 25 µM (inactive)
U-251
  GI50: 1.32 µM (inactive)
DU-145
  GI50: > 25 µM (inactive)
NCI-H522
  GI50: 0.391 µM (active)
HCT-116
  GI50: 0.0191 µM (active)
OVCAR-5
  GI50: > 21.2 µM (inactive)
HOP-92
  GI50: > 25 µM (inactive)
SK-OV-3
  GI50: > 25 µM (inactive)
MDA-MB-231
  GI50: 6.32 µM (inactive)
OVCAR-8
  GI50: 1.42 µM (inactive)
SN12C
  GI50: 1.81 µM (inactive)
HT-29
  GI50: 0.0251 µM (active)
SF-539
  GI50: 0.21 µM (active)
LOX IMVI
  GI50: 0.512 µM (active)
